Assay results from a melting point compilation (Tetko et al.; mined from patent text by program, amines drawn as free bases though some values may be those of a salt).

SMILES	melting point [°C]
Cc1ccc2nc(C)c(C3=NNC(=O)CO3)n2c1	313
COC(=O)C=C(CC(=O)OC)NCc1ccccc1	67 to 69
CCn1nc(Cc2c(Cl)cncc2Cl)c2ccc(OC)cc2c1=O	150 to 151
O=C(CCCCBr)NNC(=O)N1Cc2ccccc2Oc2ccc(Cl)cc21	147 to 149
COc1ccc(-c2cc3cc(C4=NNC(=O)CC4)ccc3[nH]2)cc1	262 to 264
O=C(C1CCCc2c1c1ccccc1n2Cc1ccccc1)N1CCCC1 (stereo unspecified)	232 to 234
O=C(Nc1ccc(CC2CCN(S(=O)(=O)c3ccccc3)CC2)cc1)C(F)(F)F	194 to 195
CN1Cc2ccc(Cl)c3scc(c23)S1(=O)=O	146
Cc1sc(N)c(C(=O)c2cccc3ccccc23)c1C	195 to 197
CCC(C(O)c1ccc(Cl)cc1)n1ncn(-c2ccc(N3CCN(c4ccc(O)cc4)CC3)cc2)c1=O (stereo unspecified)	270
O=C(NCC1Cc2c(cccc2-c2ccccc2)O1)OCc1ccccc1 (stereo unspecified)	132 to 134
O=c1c2ccccc2c(-c2ccc(Cl)cc2)nn1CCc1ccncc1	142 to 144
C(=C1CCC2(CC1)OCCO2)c1ccc(OCc2ccccc2)cc1	56 to 57
CC(C)c1cccc(C(C)C)c1NC(=O)C(N)Cc1c[nH]c2ccccc12 (stereo unspecified)	185 to 187
Cc1c(C(=O)Nc2ccc(N3CCC(N4CCOCC4)CC3)c(C#N)c2)cnn1-c1ccc(F)c(F)c1	243
O=C(O)CCCC#CCNS(=O)(=O)c1ccc(Cl)cc1	91 to 93
Cc1nn(C)c(NCC(C)(C)C)c1NCc1ccc(F)cc1	32 to 39
CCOC(=O)c1[nH]cc2c1NC1=C(C(=O)CNC1)C2c1ccc(Sc2nc3cc(F)c(F)cc3[nH]2)o1 (stereo unspecified)	190 to 196
COc1cc(Oc2cccc(C)c2)nc(C(=O)Nc2ccc(C)cc2)c1	110 to 114
Cc1cccc(S(=O)(=O)n2cncn2)c1C#N	142 to 144
COc1ccccc1Sc1ccc2c(c1)CCC1N(C)C(=O)CCC21C (single isomer, unassigned; (+))	166 to 168
COc1cc(C(=O)N2CCC(CCN3CCC(Nc4nc5ccccc5n4Cc4ccccn4)CC3)(c3ccc(F)c(F)c3)C2)cc(OC)c1OC (stereo unspecified)	101 to 107
Cc1ccc(S(=O)c2cccc(-c3nc(=O)c4ccccc4s3)n2)cc1 (stereo unspecified)	228
CCOC(=O)C(CC(=O)c1ccc(OC)cc1)C(=O)OCC	81 to 84

SMILES	melting point [°C]
CCOC(=O)CCCn1cc(C(=O)O)c2nc3c(C)cccc3cc2c1=O	186 to 188
CCN(CC)C(=O)c1cnn(C)c1C(=O)Nc1ccn2nc(N3CCOCC3)nc2c1	165 to 167
CCN(CC)CCCN1C(=S)c2cccc3cccc1c23	128
Cn1c(=O)n(CCCC(NS(=O)(=O)c2ccc(-c3ccc(Cl)cc3)cc2)C(=O)NO)c(=O)c2ccccc21 (stereo unspecified)	235
N#Cc1ccc(-c2cnc(-c3ccc(C#N)cc3)cn2)cc1	> 300
COc1c(-c2ccc3cc(NS(C)(=O)=O)ccc3c2)cc(-c2ccc[nH]c2=O)cc1C(C)(C)C	> 300
Cc1ccc(N2C(=O)C(O)=C(C(=O)c3ccc(C(F)(F)F)nc3)C2c2ccc(OC(F)(F)F)cc2)nn1 (stereo unspecified)	172
Cc1[nH]c2ccc(F)cc2c1C(=O)Nc1ccc(N2CCC(O)CC2)c(C#N)c1	169 to 171
COc1ccc(-c2cccc(C(=O)NO)c2C)cc1OCCCCCc1ccccc1	125 to 126
COc1ccccc1C(=O)NCCc1ccc(CC(=O)O)cc1	154 to 155
CC(C)(C)OC(=O)Nc1cc(N2CCC(OC3CCCCO3)C2)c(-c2ccc(F)cc2)cc1NC(=O)CC(=O)c1cccc(-n2ccnc2)c1 (stereo unspecified)	99 to 103
CCN(CC)C(=O)c1nc(C)n2c1CN=C(c1ccccc1F)c1cc(Cl)ccc1-2	182 to 188
COc1ccc(COc2ccc(CC(=O)O)cc2Cl)cc1Cl	150 to 151
COc1cc2c(cc1OC)CN(c1cc(Cl)ncn1)CC2	88 to 89
CC(=O)c1cc(F)c(O)c(F)c1	141 to 143
CCCNC1=NC(c2cccc(-c3cncnc3)c2)(c2ccc(OCCC)c(C)c2)C(=O)N1C (stereo unspecified)	64 to 66
COc1ccc2ccc(N3C(=O)c4ccccc4C3OC(=O)COCC(C)C)nc2n1 (stereo unspecified)	114
Cc1ncn(Nc2cccc(Cl)c2)c1C	146
COc1ccc2c(c1)CCC1C2CCC2(C)C(NCc3ccc(O)c(OC)c3)CCC12 (stereo unspecified)	169 to 170
O=C(O)CCC(=NO)c1ccc(-c2ccc(Cl)cc2F)cc1	148 to 150
CCCCCCCCCCCCCCCCCCC(CO)CO	88
C#CC1(O)C(C)CC2C3CCC4=CC(=O)CCC4(C)C3=CCC21C (stereo unspecified)	213 to 218
CCOC(=O)N1CCC2(CC1)N=C(N)c1c(F)ccc(Cl)c1N2	182 to 184
CCOP(=O)(CCCN)OCC	54

SMILES	melting point [°C]
CN(C)c1cc2c(cc1Cl)NC(=O)CC(c1cccc(-c3csc(Nc4ccncc4)n3)c1)=N2	231 to 234
c1ccc2c(c1)-c1nccc3ccnc-2c13	152 to 153
CC(C)(C)c1ccc(OCC(O)CN2CCC3(CC2)CSC2=C(O3)c3cc(N4CCOCC4)ccc3C(=O)C2=O)cc1 (stereo unspecified)	107 to 109
CCOCC(=O)N(c1c(C)c(C)cc2ccccc12)C(C)C(=O)OC (stereo unspecified)	96 to 108
CN1CCN(c2cccc3ccc(NC(=O)c4ccc(Cl)cc4)cc23)CC1	174 to 175
O=C(O)C1Cc2c(c(Br)cc3c(=O)c4ccccc4oc23)O1 (stereo unspecified)	283 to 286
Cc1nn2c(-c3ccncc3)ccnc2c1C#N	220 to 221
COc1cc2ccccc2[nH]c1=O	188 to 189
Clc1ccc(-c2nccs2)cc1	169 to 170
Cc1cc(Cl)ccc1OCC(=O)N1Cc2ccc(C(=O)c3ccc(C(C)(C)C)cc3)n2Cc2ccccc21	168
Cn1c(=O)c2c(nc(C=Cc3cccc(N(C(=O)OC(C)(C)C)C(=O)OC(C)(C)C)c3)n2C)n(C)c1=O	175 to 177
Clc1ccccc1CN1CC=C(c2cc3ccccc3s2)CC1	105 to 106
Nc1cccc(OCc2nc3ccccc3s2)c1	117 to 120
N#Cc1cc(C(F)(F)F)nn1-c1ccc(NC(=O)c2ccncc2F)cc1	161 to 162
CN(CCOc1ccccc1)[C@H]1CC[C@H](c2ccc(O)cc2)CC1	90 to 92
O=C1Nc2ccccc2N(C(=O)N2CCCC(CCNCC3CCCC3)C2)c2ncccc21 (stereo unspecified)	148 to 150
C[C@@H](O)CNc1c(-c2ccc(F)cc2)c(=O)c1=O	235 to 237
CCC(O)CN1N=C(c2ccc(Cl)cc2)C2CCC2C1=O (stereo unspecified)	116 to 119
CNc1cc(Oc2cccc(C(F)(F)F)c2)nc(C(=O)Nc2ccccc2)c1	158 to 160
Cc1csc(N2C(=O)C(Cc3ccccc3)NC2=S)n1 (stereo unspecified)	169 to 171
Cc1cc(=O)[nH]c2ccc(OCCCN3CCN(Cc4ccc(Cl)cc4)CC3)cc12	195 to 197
O=C(Nc1ccc(F)cc1)N1CC=CCN1	100 to 101
C=CCC(CC=C)(CC=C)c1ccc(-c2nc3cc(C#N)c(C#N)cc3n2CCC)cc1	132 to 134
COC(=O)c1cc(S(=O)(=O)N=CN(C)C)ccc1Cl	140 to 141

SMILES	melting point [°C]
O=C1C(c2c[nH]c3ccccc23)C(c2c[nH]c3ccccc23)C(=O)N1Cc1ccccc1 (stereo unspecified)	112 to 115
CCOCCn1cc2c(C3C(=O)Nc4ccc(Cl)cc43)nc(NCCN3CCOCC3)nc2n1 (stereo unspecified)	293 to 294
Cc1cnc(-c2cc3c(OC[C@@H](O)CN4CCC(c5ccc6ccccc6c5)CC4)cccc3s2)o1	138 to 139
CCc1ccc2c(-c3ccccc3)onc2c1	41 to 43
CC(C)C(=O)N1N=Cc2ccccc2C1C#N (stereo unspecified)	144 to 146
CCCCNC(=O)c1cnc2cccc(C)n2c1=O	127 to 130
CC(=O)NCC1CC(c2ccc(C3=CCN(C(=O)CO)CC3)cc2)=NO1 (stereo unspecified)	115 to 118
Cn1c(=O)c2c(ncn2Cc2noc(CCl)n2)n(C)c1=O	146 to 148
CN1C(=O)c2cccc(S(=O)(=O)Cl)c2C1=O	159 to 162
O=S(=O)(Nc1ccc(Cl)cc1C=NOCc1ccc(C(F)(F)F)cc1C(F)(F)F)C(F)(F)F	65 to 67
CC(C(=O)Cl)c1ccc(C(=O)c2cccs2)cc1 (stereo unspecified)	149
C=C(C)C(=O)O[C@H]1C[C@@H](C(=O)OC)[C@]2(C)CC[C@H]3C(=O)O[C@H](c4ccoc4)C[C@]3(C)[C@H]2C1=O	196 to 199
CCCCc1nn(-c2ccc(C(F)(F)F)cn2)cc1CCCOc1nn(C)cc1CC(=O)O	125 to 126
CCOC(=O)C(=O)c1ccc(SCC2CC2)[nH]1	46
O=C(O)C1=CS[C@@H]2/C(=C\c3cc4c(s3)CCN(Cc3ccccc3)C4)C(=O)N12	198
COc1nsc2nc3ccccc3n12	172 to 175
O=C(Nc1ccc(C(=O)N2CCC=Cc3ccccc32)cc1)c1ccccc1Cl	205 to 207
CCOC(=O)c1cnc2c(c(C)nc3cc(C)nn32)c1NC(C)CC (stereo unspecified)	113 to 115
C=C(C)c1cn(-c2c(Cl)cc(C(F)(F)F)cc2Cl)nc1C#N	63 to 64
CC1=C(C(=O)OCCN(Cc2ccccc2)Cc2ccccc2)C(c2ccccc2C(F)(F)F)c2c(ccnc2OC(C)C)N1 (stereo unspecified)	132 to 133
COc1cc(-c2nc3cc(F)ccc3s2)ccc1OC(=O)N1CCOCC1	126
Cc1[nH]c(=O)c(C#N)cc1-c1ccc2nccn2c1	> 300
CCCCc1nn(-c2cc(NC(=O)COCC)ccc2Cl)c(=O)n1Cc1ccc(-c2ccccc2S(=O)(=O)NC(=O)OC(C)(C)C)cc1F	100 to 102
COc1ccc(-c2cc(-c3ccc(-c4c(Cc5ccccc5)sc5ccccc45)cc3)ccc2OC(Cc2ccccc2)C(=O)O)cc1 (stereo unspecified)	82 to 84
